Measurements reported in patent publication US9187438B2, “Derivatives of benzothiazines, preparation thereof and application thereof as drugs” (PIERRE FABRE MEDICAMENT, priority 2009, dated 2015).
pEC50: −log10 of the molar value.

What was measured:
Type in all cases: biochemical
[1] = biological target: T1, 11β-HSD1 (Homo sapiens, UniProt P28845); assay: Human enzymatic activity of 11β-HSD1 from liver microsomes, [3H]cortisone to [3H]cortisol conversion, SPA (inhibition % or EC50); conditions: for inhibition at 1 µM: 10^−6M inhibitor, read-out: 11β-HSD1/SPA % inhib. (10^−6M)
T1 construct: adding 1 μg of human hepatic microsome (Xenotech); tissue Xenotech; host or cells: human liver microsomes
T1 sequence (P28845 whole entry): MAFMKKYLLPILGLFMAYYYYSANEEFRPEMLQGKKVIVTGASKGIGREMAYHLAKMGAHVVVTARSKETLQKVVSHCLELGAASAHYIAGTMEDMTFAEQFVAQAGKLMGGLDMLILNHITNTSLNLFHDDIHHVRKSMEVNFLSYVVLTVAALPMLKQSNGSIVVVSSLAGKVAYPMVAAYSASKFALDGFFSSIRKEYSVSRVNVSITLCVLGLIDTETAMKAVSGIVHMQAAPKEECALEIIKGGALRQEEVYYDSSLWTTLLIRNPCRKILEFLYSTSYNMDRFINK
Protocol: The enzymatic test is based on the conversion of [^3H] cortisone into [^3H] cortisol by 11β-HSD1. […] The sealed plates are centrifuged at low speed for mixing the components and then incubated for 2 hours at 37° C. (enzymatic phase). The enzymatic reaction is stopped by adding 70 μl/well of complex [10 mg/mL of yttrium silicate SPA beads associated with the protein A (GE Healthcare) and pre-incubated with an anti-cortisol monoclonal antibody (East Coast Biologics, ME)] containing 10 μM of 18β-glycerrhitinic acid. The plates are sealed and then incubated under slow orbital stirring for 2 hours at room temperature (detection phase).

[2] = biological target: T2, 11β-HSD2 (Homo sapiens, UniProt P80365); assay: Human enzymatic activity of 11β-HSD2 from kidney microsomes, [3H]cortisol to [3H]cortisone conversion, SPA (inhibition %); conditions: 10^−5M inhibitor, read-out: 11β-HSD2/SPA % inhib. (10^−5M)
T2 construct: of human kidney microsomes (Xenotech); tissue Xenotech; host or cells: human kidney microsomes
T2 sequence (P80365 1-405): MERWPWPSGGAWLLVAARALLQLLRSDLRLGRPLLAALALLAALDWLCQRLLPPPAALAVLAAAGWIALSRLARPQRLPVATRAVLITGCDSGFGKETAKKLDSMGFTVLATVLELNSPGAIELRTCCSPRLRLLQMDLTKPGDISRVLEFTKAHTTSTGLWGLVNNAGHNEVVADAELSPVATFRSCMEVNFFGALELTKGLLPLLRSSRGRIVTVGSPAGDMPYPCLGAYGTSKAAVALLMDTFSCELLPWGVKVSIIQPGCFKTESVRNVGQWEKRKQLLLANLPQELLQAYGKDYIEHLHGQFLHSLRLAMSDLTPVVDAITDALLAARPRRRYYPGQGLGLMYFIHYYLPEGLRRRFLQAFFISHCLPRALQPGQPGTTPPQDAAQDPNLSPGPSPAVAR
Protocol: 3) Human Enzymatic Activity of 11β-HSD2 from Kidney Microsomes after Treatment with the Inhibitor Compounds (Inhibition %).
The enzymatic test is based on the conversion of [^3H] cortisol into [^3H] cortisone by 11β-HSD2. The enzymatic reaction is started by adding 0.75 μg (standardization of this amount in order to obtain 80% of the conversion maximum of the substrate under the experimental conditions) of human kidney microsomes (Xenotech) to wells (Optiplate™ 96-well plates, a reaction volume of 50 μL) containing 8 nM [1,2,6,7-^3H] cortisol (specific activity of 70-75 Ci/mmol, Amersham-GE Healthcare) in a 50 mM HEPES buffer (pH 7.4) with 100 mM KCl, 5 mM NaCl, 2 mM MgCl2, 1 mM NAD^+ and the inhibitor compound or the carrier (1% DMSO). The sealed plates are centrifuged at low speed in order to mix the components and then incubated for 2 hours at 37° C. (enzymatic phase). The enzymatic reaction is stopped by adding 70 μl/well of complex [10 mg/mL of yttrium silicate SPA beads associated with protein A (GE Healthcare) and pre-incubated with an anti-cortisol monoclonal antibody (East Coast Biologics, ME)] containing 10 μM of 18β-glycerrhitinic acid. The plates are sealed and then incubated under slow orbital stirring for 2 hours at room temperature (detection phase). After centrifugation, the measurements are conducted with a scintillation counter TopCount NXT (Perkin Elmer). An inhibition percentage for each evaluated compound concentration is calculated relatively to the standard enzymatic activity (carrier 1% DMSO).

[3] = biological target: T1, 11β-HSD1; assay: Human enzymatic activity of 11β-HSD1 from liver microsomes, cortisone to cortisol conversion, HTRF detection (inhibition %); conditions: 10^−6M inhibitor, read-out: 11β-HSD1/HTRF % inhib. (10^−6M)
Protocol: 1) Human Enzymatic Activity of 11β-HSD1 from Liver Microsomes after Treatment with Inhibitor Compounds (Inhibition %).
The enzymatic test is based on the conversion of cortisone into cortisol by 11β-HSD1. […] A calibration curve of known cortisol concentrations is produced simultaneously under the same experimental conditions. The plates are incubated for 2 hours at 37° C. (enzymatic phase). By adding 25 μL of conjugate cortisol-d2 and of 25 μL of anti-cortisol anαtibody labeled with Eu^3+ cryptate per well, the enzymatic reaction may be stopped and after incubation of 2 hours at room temperature the formed cortisol (detection phase) may be quantified by HTRF® (CIS bio international, reference 62CO2PEC). The fluorescence measurements are conducted with a Fusion™ α(Perkin Elmer) reader. For each well, fluorescence is measured at 620 nm and at 665 nm. A ratio (λ665 nm/λ620 nm) and a specific FRET signal are calculated, with which an inhibition percentage may be determined for each concentration of evaluated inhibitor compound.

| Compound | pEC50 [1] | inhibition at 1 µM [1] | inhibition at 10 µM [2] | inhibition at 1 µM [3] |
| --- | --- | --- | --- | --- |
| CN1C(C(=O)c2ccc3ccccc3c2)=C(O)c2ccccc2S1(=O)=O [Example 1, (4-Hydroxy-2-methyl-1,1-dioxo-2H-benzo[e][1,2]thiazin-3-yl)(naphthalen-2-yl)methanone] | 7.80 | 97% | 42% | 99% |
| Cc1ccc(C(=O)C2=C(O)c3ccccc3S(=O)(=O)N2C)cc1 [Example 3, (4-hydroxy-2-methyl-2H-1,1-dioxo-benzo[e][1,2]thiazin-3-yl) (4-methylphenyl)methanone] | 7.19 | 93% | 33% | 99% |
| CCN1C(C(=O)c2ccc3ccccc3c2)=C(O)c2ccccc2S1(=O)=O [Example 9, (4-hydroxy-2-ethyl-1,1-dioxo-2H-benzo[e][1,2]thiazin-3-yl)(naphthalen-2-yl)methanone] | 7.22 | 88% | 5% | 98% |
| CN1C(C(=O)c2ccc3ccccc3c2)=C(O)c2ccc(F)cc2S1(=O)=O [Example 17, (7-Fluoro-4-hydroxy-2-methyl-1,1-dioxo-2H-benzo[e][1,2]thiazin-3-yl)(naphthalen-2-yl)methanone] | 7.96 | 99% | 61% | 100% |
| CCN1C(C(=O)c2ccc3ccccc3c2)=C(O)c2ccc(F)cc2S1(=O)=O [Example 18, (7-Fluoro-4-hydroxy-2-ethyl-1,1-dioxo-2H-benzo[e][1,2]thiazin-3-yl)(naphthalen-2-yl)methanone] | 7.16 | 91% | 25% | 100% |
| CC(=O)OC1=C(C(=O)c2ccc3ccccc3c2)N(C)S(=O)(=O)c2ccccc21 [Example 46, Acetic acid 2-methyl-3-(naphthalene-2-carbonyl)-1,1-dioxo-2H-benzo[e][1,2]thiazin-4-yl ester] | 7.14 | 91% | 63% | 100% |
| CN1C(C(=O)c2ccc3ccccc3c2)=C(OC(=O)COc2ccccc2)c2ccccc2S1(=O)=O [Example 54, Phenoxyacetic acid 2-methyl-3-(naphthalene-2-ylcarbonyl)-1,1-dioxo-2H-benzo[e][1,2]thiazin-4-yl ester] | 7.57 | 97% | 71% | 100% |
| CN1C(C(=O)c2ccc(Cl)c(Cl)c2)=C(O)c2ccccc2S1(=O)=O [Example 123, (4-hydroxy-2-methyl-1,1-dioxo-2H-benzo[e][1,2]thiazin-3-yl) (3,4-dichlorophenyl)methanone] | 7.37 | 93% | 31% | 100% |
| CN1C(C(=O)c2cccc(Br)c2)=C(O)c2ccccc2S1(=O)=O [Example 142, (3-Bromo-phenyl)-(4-hydroxy-2-methyl-1,1-dioxo-1,2-dihydro-2H-benzo[e][1,2]thiazin-3-yl)-methanone] | 7.68 | 87% |  | 100% |
